# Read-outs that look alike come from different tables or passages of the source.
# What was measured:
# epidermal cell = conditions: cited from earlier work
# BHK-21 cells [1] = experiment: Inhibitory effects of steroids on BHK-21 cells; type: cell-based, hamster; conditions: for activity at 0.5 µg/mL / activity at 1 µg/mL / activity at 5 µg/mL / activity at 25 µg/mL / activity at 50 µg/mL: Mesocricetus auratus, read-out: % of control cell numbers
# mouse fibroblasts = conditions: with protoplasmic vacuolation; cited from earlier work
# BHK-21 cells [2] = experiment: Effects of WHS on BHK-21 cells in the presence of steroids; type: cell-based, hamster; conditions: steroid 50 μg/ml alone
# [3] = system: BHK-21 cells (hamster renal fibroblasts); experiment: Growth of BHK-21 cells, time course; type: cell-based
compound,measurement,setting,value
cholera toxin,stimulating activity on epidermal cell growth,epidermal cell,marked stimulating activity
"CC1(C)O[C@@H]2C[C@H]3[C@@H]4C[C@H](F)C5=CC(=O)C=C[C@]5(C)[C@@]4(F)[C@@H](O)C[C@]3(C)[C@]2(C(=O)CO)O1 [Fluocinolone acetanide, fluocinolone acetonide]",cell numbers,"BHK-21 cells [1]; 0.5 μg/ml, 1 day",0.15 × 10^5 cells/dish
same,cell numbers,"BHK-21 cells [1]; 0.5 μg/ml, 3 days",1.16 × 10^5 cells/dish
same,cell numbers,"BHK-21 cells [1]; 0.5 μg/ml, 5 days",1.66 × 10^5 cells/dish
same,cell numbers,"BHK-21 cells [1]; 1.0 μg/ml, 1 day",0.15 × 10^5 cells/dish
same,cell numbers,"BHK-21 cells [1]; 1.0 μg/ml, 3 days",1.04 × 10^5 cells/dish
same,cell numbers,"BHK-21 cells [1]; 1.0 μg/ml, 5 days",1.72 × 10^5 cells/dish
same,cell numbers,"BHK-21 cells [1]; 5.0 μg/ml, 1 day",0.15 × 10^5 cells/dish
same,cell numbers,"BHK-21 cells [1]; 5.0 μg/ml, 3 days",1.02 × 10^5 cells/dish
same,cell numbers,"BHK-21 cells [1]; 5.0 μg/ml, 5 days",1.66 × 10^5 cells/dish
same,cell numbers,"BHK-21 cells [1]; 25.0 μg/ml, 1 day",0.15 × 10^5 cells/dish
same,cell numbers,"BHK-21 cells [1]; 25.0 μg/ml, 3 days",0.88 × 10^5 cells/dish
same,cell numbers,"BHK-21 cells [1]; 25.0 μg/ml, 5 days",1.39 × 10^5 cells/dish
same,cell numbers,"BHK-21 cells [1]; 50.0 μg/ml, 1 day",0.12 × 10^5 cells/dish
same,cell numbers,"BHK-21 cells [1]; 50.0 μg/ml, 3 days",0.71 × 10^5 cells/dish
same,cell numbers,"BHK-21 cells [1]; 50.0 μg/ml, 5 days",1.12 × 10^5 cells/dish
same,activity at 0.5 µg/mL,"BHK-21 cells [1]; BHK-21, 24 h, 0.5 μg/ml, 1 day",107%
same,activity at 1 µg/mL,"BHK-21 cells [1]; BHK-21, 24 h, 1.0 μg/ml, 1 day",107%
same,activity at 5 µg/mL,"BHK-21 cells [1]; BHK-21, 24 h, 5.0 μg/ml, 1 day",107%
same,activity at 25 µg/mL,"BHK-21 cells [1]; BHK-21, 24 h, 25.0 μg/ml, 1 day",107%
same,activity at 50 µg/mL,"BHK-21 cells [1]; BHK-21, 24 h, 50.0 μg/ml, 1 day",85.7%
same,activity at 0.5 µg/mL,"BHK-21 cells [1]; BHK-21, 72 h, 0.5 μg/ml, 3 days",86.6%
same,activity at 1 µg/mL,"BHK-21 cells [1]; BHK-21, 72 h, 1.0 μg/ml, 3 days",77.6%
same,activity at 5 µg/mL,"BHK-21 cells [1]; BHK-21, 72 h, 5.0 μg/ml, 3 days",76.1%
same,activity at 25 µg/mL,"BHK-21 cells [1]; BHK-21, 72 h, 25.0 μg/ml, 3 days",65.7%
same,activity at 50 µg/mL,"BHK-21 cells [1]; BHK-21, 72 h, 50.0 μg/ml, 3 days",53%
same,activity at 0.5 µg/mL,"BHK-21 cells [1]; BHK-21, 120 h, 0.5 μg/ml, 5 days",75.8%
same,activity at 1 µg/mL,"BHK-21 cells [1]; BHK-21, 120 h, 1.0 μg/ml, 5 days",78.5%
same,activity at 5 µg/mL,"BHK-21 cells [1]; BHK-21, 120 h, 5.0 μg/ml, 5 days",75.8%
same,activity at 25 µg/mL,"BHK-21 cells [1]; BHK-21, 120 h, 25.0 μg/ml, 5 days",63.5%
same,activity at 50 µg/mL,"BHK-21 cells [1]; BHK-21, 120 h, 50.0 μg/ml, 5 days",51.1%
same,growth of incubated mouse fibroblasts,mouse fibroblasts,inhibited growth
same,cell numbers,BHK-21 cells [2]; 3rd day,0.97 × 10^5 cells/dish
same,cell numbers,BHK-21 cells [2]; 5th day,1.22 × 10^5 cells/dish
EGF: epidermal growth factor,saturation density of the cells,[3],increased the saturation density of the cells
PDGF,saturation density of the cells,"[3]; Eagle's MEM containing 10% calf serum, 37° C.",increased the saturation density of the cells
